Drawing on patent US20240343740A1, “MACROCYCLIC GLUCAGON-LIKE PEPTIDE 1 RECEPTOR AGONISTS” (Eli Lilly and Company, priority 2021, published 2024), this text covers EC50 and Emax for 16 compounds.

As usually defined, the EC50 is the concentration needed to bring the measured effect to its halfway point. Broadly, the Emax is the size of the effect at its maximum, as opposed to the concentration needed.

The target in assay [1] is T1, human GLP-1R (Homo sapiens, UniProt P43220). The assay is described as follows: Human GLP-1 Receptor HEK293 cell cAMP assay, 104 fmol/mg GLP-1R expression density. The format is cell-based. Also on record: expressed in transfected cells; host or cells: HEK293 clonal cell line. The settings on record: HEK293 cell line with 104 fmol/mg expression density of GLP-1R; for EC50: geometric mean, read-out: EC50 nM (SEM, n), intracellular cAMP response, relative EC50; for Emax: percent of maximal response to GLP-1(7-36)NH2, arithmetic mean, read-out: Emax % (SEM, n), intracellular cAMP response. The essentials: (§1)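 HEK293 clonal lines expressing human GLP-1R, 20-point compound curves, 30 min at 37° C in DMEM with 0.1% casein, 250 μM IBMX, 0.5% DMSO. cAMP by HTRF, converted via standard curve to % of maximal human GLP-1(7-36)NH2 response; relative EC50 and Emax from four-parameter logistic fit.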
Background: Cyclic AMP is a second messenger, typically raised through Gs and lowered through Gi signalling.

In assay [2] the target is T1, human GLP-1R. The experiment in a line: Human GLP-1 Receptor HEK293 cell cAMP assay, 581 fmol/mg GLP-1R expression density. The format is cell-based. Also on record: expressed in transfected cells; host or cells: HEK293 clonal cell line. The settings on record: HEK293 cell line with 581 fmol/mg expression density of GLP-1R; for EC50: geometric mean, read-out: EC50 nM (SEM, n), intracellular cAMP response, relative EC50; for Emax: percent of maximal response to GLP-1(7-36)NH2, arithmetic mean, read-out: Emax % (SEM, n), intracellular cAMP response. The method, boiled down: as §1

T1 sequence (P43220 24-463): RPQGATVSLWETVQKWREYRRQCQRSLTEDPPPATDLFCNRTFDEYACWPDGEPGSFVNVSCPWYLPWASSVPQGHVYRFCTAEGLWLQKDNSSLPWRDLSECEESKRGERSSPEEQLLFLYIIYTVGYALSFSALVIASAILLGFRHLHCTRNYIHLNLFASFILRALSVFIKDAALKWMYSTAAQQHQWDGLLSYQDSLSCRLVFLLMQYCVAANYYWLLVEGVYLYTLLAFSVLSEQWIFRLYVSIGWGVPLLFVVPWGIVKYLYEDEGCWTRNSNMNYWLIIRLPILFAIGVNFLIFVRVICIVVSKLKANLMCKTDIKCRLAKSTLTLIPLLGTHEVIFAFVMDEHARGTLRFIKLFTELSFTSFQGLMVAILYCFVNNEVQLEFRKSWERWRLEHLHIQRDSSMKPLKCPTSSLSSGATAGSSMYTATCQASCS

Take `COCCOc1cc(C(=O)O)cc2c1nc(Cc1cc(F)c3cc1CCOCc1cc(ccc1Cl)COc1cccc-3n1)n2C[C@@H]1CCO1` [Example 47, (S)-2-((5^4-Chloro-1^6-fluoro-3,7-dioxa-2(2,6)-pyridina-1,5(1,3)-dibenzenacyclononaphane-1^4-yl)methyl)-4-(2-methoxyethoxy)-1-(oxetan-2-ylmethyl)-1H-benzo[d]imidazole-6-carboxylic acid]: in assay [1], the concentration for a half-maximal effect (EC50) came out at 116 nM and the Emax was found to be 108%. In addition, in assay [2], the EC50 is 25.1 nM and the Emax is 110%.
Regarding `COCCOc1cc(C(=O)O)cc2c1nc(Cc1cc(F)c3cc1CCOCc1cc(ccc1C#N)COc1cccc-3n1)n2C[C@@H]1CCO1` [Example 48, (S)-2-((5^4-Cyano-1^6-fluoro-3,7-dioxa-2(2,6)-pyridina-1,5(1,3)-dibenzenacyclononaphane-1^4-yl)methyl)-4-(2-methoxyethoxy)-1-(oxetan-2-ylmethyl)-1H-benzo[d]imidazole-6-carboxylic acid], the concentration giving a half-maximal response (EC50) in assay [1] is 31.5 nM; in assay [2], 11.2 nM. In addition, the Emax was 86.8% in assay [1] and 108% in assay [2].
Turning to `COCCOc1cc(C(=O)O)cc2c1nc(Cc1ccc3cc1COCCc1cc(C#N)ccc1COc1ccc(F)c-3n1)n2C[C@@H]1CCO1` [Example 49, (S)-2-((5^4-Cyano-2^3-fluoro-3,8-dioxa-2(2,6)-pyridina-1(1,3),5(1,2)-dibenzenacyclononaphane-1^4-yl)methyl)-4-(2-methoxyethoxy)-1-(oxetan-2-ylmethyl)-1H-benzo[d]imidazole-6-carboxylic acid], in assay [1], the half-maximal effective concentration (EC50) was 8.39 nM and the Emax came out at 85.5%. Further, in assay [2], the EC50 is 2.33 nM and the Emax was determined as 112%.
The like results for `COCCOc1cc(C(=O)O)cc2c1nc(Cc1ccc3cc1COCC(F)(F)c1cc(C#N)ccc1COc1cccc-3n1)n2C[C@@H]1CCO1` [Example 50, (S)-2-((5^4-cyano-6,6-difluoro-3.8-dioxa-2(2,6)-pyridina-1(1,3),5(1,2)-dibenzenacyclonaphane-1^4-yl)methyl)-4-(2-methoxyethoxy)-1-(oxatan-2-ylmethyl)-1H-benzo[d]imidazole-6-carboxylic acid] were, in that order, 128 nM, 82.8%, 38.1 nM and 115%.
In the case of `COc1cc(C(=O)O)cc2c1nc(Cc1ccc3cc1COCCc1cc(C#N)ccc1COc1ccnc-3n1)n2C[C@@H]1CCO1` [Example 51, (S)-2-((5^4-Cyano-3,8-dioxa-2(2,4)-pyrimidina-1(1,3),5(1,2)-dibenzenacyclononaphane-1^4-yl)methyl)-4-methoxy-1-(oxetan-2-ylmethyl)-1H-benzo[d]imidazole-6-carboxylic acid], in assay [1], the concentration for a half-maximal effect (EC50) amounted to 152 nM and the Emax is 77.1%. In assay [2], the 50% effective concentration (EC50) came out at 41 nM and the maximal response (Emax) is 96.7%.
The like results for `COCCOc1cc(C(=O)O)cc2c1nc(Cc1ccc3cc1COCCc1cc(C(F)(F)F)ncc1COc1cccc-3n1)n2C[C@@H]1CCO1` [Example 52, (S)-4-(2-Methoxyethoxy)-1-(oxetan-2-ylmethyl)-2-((5^6-(trifluoromethyl)-3,8-dioxa-2(2,6),5(3,4)-dipyridina-1(1,3)-benzenacyclononaphane-1^4-yl)methyl)-1H-benzo[d]imidazole-6-carboxylic acid] were, in that order, 153 nM, 84.3%, 58.4 nM and 108%.
For `Cc1nc(CCOc2cc(C(=O)O)cc3c2nc(Cc2ccc4cc2OCCCc2cc(C#N)ccc2COc2cccc-4n2)n3C[C@@H]2CCO2)co1` [Example 53, (S)-2-((5^4-Cyano-3,9-dioxa-2(2,6)-pyridina-1(1,3),5(1,2)-dibenzenacyclononaphane-1^4-yl)methyl)-4-(2-(2-methyloxazol-4-yl)ethoxy)-1-(oxetan-2-ylmethyl)-1H-benzo[d]imidazole-6-carboxylic acid] the same measures were 293 nM, 58%, 77.8 nM and 104%.
The like results for `N#Cc1ccc2c(c1)CCCOc1cc(ccc1Cc1nc3c(OCCNCC(F)(F)F)cc(C(=O)O)cc3n1C[C@@H]1CCO1)-c1cccc(n1)OC2` [Example 54, (S)-2-((5^4-Cyano-3,9-dioxa-2(2,6)-pyridina-1(1,3),5(1,2)-dibenzenacyclononaphane-1^4-yl)methyl)-1-(oxetan-2-ylmethyl)-4-(2-((2,2,2-trifluoroethyl)amino)ethoxy)-1H-benzo[d]imidazole-6-carboxylic acid] were, in that order, 654 nM, 18.3%, 440 nM and 49.5%.
For the compound `O=C(O)c1cc(OCCO)c2nc(Cc3ccc4cc3COCCc3cc(Cl)ccc3COc3cccc-4n3)n(C[C@@H]3CCO3)c2c1` [Example 55, (S)-4-[2-Hydroxyethoxy]-2-((5^4-chloro-3,8-dioxa-2(2,6)-pyridina-1(1,3),5(1,2)-dibenzenacyclononaphane-1^4-yl)methyl)-1-(oxetan-2-ylmethyl)-1H-benzo[d]imidazole-6-carboxylic acid], in assay [1], the EC50 came to 22.8 nM and the maximum response (Emax) turned out to be 84.8%. Moreover, in assay [2], the EC50 turned out to be 8.94 nM and the maximum response (Emax) came out at 113%.
`CN(C)CCOc1cc(C(=O)O)cc2c1nc(Cc1ccc3cc1COCCc1cc(Cl)ccc1COc1cccc-3n1)n2C[C@@H]1CCO1` [Example 56, (S)-2-((5^4-Chloro-3,8-dioxa-2(2,6)-pyridina-1(1,3),5(1,2)-dibenzenacyclononaphane-1^4-yl)methyl)-4-(2-(dimethylamino)ethoxy)-1-(oxetan-2-ylmethyl)-1H-benzo[d]imidazole-6-carboxylic acid]: in assay [1], the 50% effective concentration (EC50) was determined as 131 nM and the Emax was found to be 41.7%. Besides, in assay [2], the EC50 stood at 55.8 nM and the Emax was 85%.
Take `CNCCOc1cc(C(=O)O)cc2c1nc(Cc1ccc3cc1COCCc1cc(Cl)ccc1COc1cccc-3n1)n2C[C@@H]1CCO1` [Example 57, (S)-2-((5^4-Chloro-3,8-dioxa-2(2,6)-pyridina-1(1,3),5(1,2)-dibenzenacyclononaphane-1^4-yl)methyl)-4-(2-(methylamino)ethoxy)-1-(oxetan-2-ylmethyl)-1H-benzo[d]imidazole-6-carboxylic acid]: in assay [1], the EC50 amounted to 1030 nM and the Emax amounted to 42.1%. Moreover, in assay [2], the EC50 is 440 nM and the Emax worked out at 76.2%.
For `COCCOc1cc(C(=O)O)cc2c1nc(Cc1cc(F)c3cc1COCCc1cc(ccc1C#N)COc1cccc-3n1)n2C[C@@H]1CCO1` [Example 58, (S)-2-((5^4-Cyano-1^6-fluoro-3,8-dioxa-2(2,6)-pyridina-1,5(1,3)-dibenzenacyclononaphane-1^4-yl)methyl)-4-(2-methoxyethoxy)-1-(oxetan-2-ylmethyl)-1H-benzo[d]imidazole-6-carboxylic acid] the same measures were 1.62 nM, 90%, 0.633 nM and 109%.
Regarding `CN1CCC(Oc2cc(C(=O)O)cc3c2nc(Cc2ccc4cc2OCCCc2cc(C#N)ccc2COc2cccc-4n2)n3C[C@@H]2CCO2)C1` (stereo partly drawn) [Example 59, 2-((5^4-Cyano-3,9-dioxa-2(2,6)-pyridina-1(1,3),5(1,2)-dibenzenacyclononaphane-1^4-yl)methyl)-4-((1-methylpyrrolidin-3-yl)oxy)-1-(((S)-oxetan-2-yl)methyl)-1H-benzo[d]imidazole-6-carboxylic acid], in assay [1], the EC50 was determined as 515 nM and the Emax worked out at 48.4%. In assay [2], the EC50 was determined as 262 nM and the maximal effect (Emax) was 90.9%.
The like results for `N#Cc1ccc2c(c1)CCOCc1cc(ccc1Cc1nc3c(F)cc(C(=O)O)cc3n1C[C@@H]1CCO1)-c1cccc(n1)OC2` [Example 61, (S)-2-((5^4-cyano-3,8-dioxa-2(2,6)-pyridina-1(1,3),5(1,2)-dibenzenacyclononaphane-1^4-yl)methyl)-4-fluoro-1-(oxetan-2-ylmethyl)-1H-benzo[d]imidazole-6-carboxylic acid] were, in that order, 79.1 nM, 93.2%, 18.1 nM and 110%.
On to `CN(C)C(=O)COc1cc(C(=O)O)cc2c1nc(Cc1ccc3cc1OCCCc1cc(C#N)ccc1COc1cccc-3n1)n2C[C@@H]1CCO1` [Example 62, (S)-2-((5^4-Cyano-3,9-dioxa-2(2,6)-pyridina-1(1,3),5(1,2)-dibenzenacyclononaphane-1^4-yl)methyl)-4-(2-(dimethylamino)-2-oxoethoxy)-1-(oxetan-2-ylmethyl)-1H-benzo[d]imidazole-6-carboxylic acid], for which, in assay [1], the 50% effective concentration (EC50) came out at 737 nM and the maximal effect (Emax) was 32.9%. For the same compound, in assay [2], the concentration for a half-maximal effect (EC50) is 285 nM and the Emax turned out to be 62.2%.
For `CCn1cncc1Cn1c(Cc2ccc3cc2OCCCc2cc(C#N)ccc2COc2cccc-3n2)nc2c(OC)cc(C(=O)O)cc21` [Example 63, 2-((5^4-Cyano-3,9-dioxa-2(2,6)-pyridina-1(1,3),5(1,2)-dibenzenacyclononaphane-1^4-yl)methyl)-1-((1-ethyl-1H-imidazol-5-yl)methyl)-4-methoxy-1H-benzo[d]imidazole-6-carboxylic acid] the same measures were 112 nM, 81.1%, 29.9 nM and 101%.
